Laboratory results published in the supplement of paper PMC10307832.

Legend:
Test in all cases: relative viability (nuclei count vs DMSO), 5 days (fraction); higher = more cells survive
[1] = compound: CC1=CC(=CC=C1)NC2=NC(=CS2)C3=CC=NC=C3 + Cc1nc(Nc2ncc(C(=O)Nc3c(C)cccc3Cl)s2)cc(N2CCN(CCO)CC2)n1 [Dasatinib] (partner 0.075 µM)
Outline: (§1)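 Five library-drug doses in √10 steps were combined with a fixed anchor-drug dose, or a single drug was given alone, by pin tool to lung cancer cell lines in 1536-well plates the day after seeding. Nuclei were stained and counted after 5 days. Relative viability is the nuclei count in treated wells over that in vehicle wells, taken as the median of duplicate plates.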

[2] = compound: CC1=CC(=CC=C1)NC2=NC(=CS2)C3=CC=NC=C3 + Nc1nc2[nH]cc(CCc3ccc(C(=O)N[C@@H](CCC(=O)O)C(=O)O)cc3)c2c(=O)[nH]1 [Pemetrexed] (partner 0.2 µM)
Outline: as §1

[3] = compound: CC1=CC(=CC=C1)NC2=NC(=CS2)C3=CC=NC=C3 + C[C@]1(O)C[C@@H](c2nc(-c3ccc4ccc(-c5ccccc5)nc4c3)c3c(N)nccn32)C1 [Linsitinib] (partner 1 µM)
Outline: as §1

Masitinib + Lapatinib = compound: Cc1ccc(NC(=O)c2ccc(CN3CCN(C)CC3)cc2)cc1Nc1nc(-c2cccnc2)cs1 [Masitinib] + CS(=O)(=O)CCNCc1ccc(-c2ccc3ncnc(Nc4ccc(OCc5cccc(F)c5)c(Cl)c4)c3c2)o1 [Lapatinib] (partner 2 µM)
Outline: as §1

Cell Line	relative viability ([1]; first compound 0.08 µM)	relative viability ([1]; first compound 0.253 µM)	relative viability ([1]; first compound 0.8 µM)	relative viability ([1]; first compound 2.53 µM)	relative viability ([1]; first compound 8 µM)	relative viability ([2]; first compound 0.08 µM)	relative viability ([2]; first compound 0.253 µM)	relative viability ([2]; first compound 0.8 µM)	relative viability ([2]; first compound 2.53 µM)	relative viability ([2]; first compound 8 µM)	relative viability ([3]; first compound 0.253 µM)	relative viability ([3]; first compound 0.8 µM)	relative viability ([3]; first compound 2.53 µM)	relative viability ([3]; first compound 8 µM)	relative viability (Masitinib + Lapatinib; first compound 0.01 µM)	relative viability (Masitinib + Lapatinib; first compound 0.03162 µM)	relative viability (Masitinib + Lapatinib; first compound 0.1 µM)	relative viability (Masitinib + Lapatinib; first compound 0.3162 µM)	relative viability (Masitinib + Lapatinib; first compound 1 µM)	relative viability ([3]; first compound 0.08 µM)
NCI-H2342	0.306	0.303	0.302	0.278	0.311	0.615	0.796	0.765	0.789	0.759	–	–	–	–	–	–	–	–	–	–
NCI-H1793	0.343	0.365	0.454	0.459	0.356	0.603	0.779	0.808	0.604	0.957	0.763	0.92	0.753	0.825	0.631	0.633	0.594	0.456	0.575	–
LU99A	0.543	0.525	0.521	0.517	0.479	0.141	0.199	0.171	0.178	0.182	0.669	0.532	0.554	0.538	0.953	1.1	1.05	1.05	0.981	–
HCC-366	0.543	0.567	0.625	0.48	0.365	0.154	0.123	0.121	0.113	0.0949	0.593	0.501	0.563	0.399	0.731	1.1	0.785	0.945	1.13	0.454
201T	0.59	0.515	0.497	0.508	0.382	0.339	0.293	0.321	0.301	0.334	1.05	1	0.817	0.852	0.763	1.01	0.811	0.882	1.03	1.03
HCC-827	0.422	0.352	0.437	0.455	0.464	0.283	0.274	0.282	0.256	0.272	0.874	0.969	0.906	0.907	0.198	0.189	0.19	0.168	0.201	0.914
NCI-H650	0.366	0.413	0.447	0.376	0.475	0.953	0.88	1.07	0.863	1.06	0.739	1.13	–	1.06	0.927	0.859	1.09	1.07	1.1	0.659
NCI-H2085	0.241	0.243	0.241	0.186	0.243	0.774	0.943	0.84	0.806	0.711	0.952	0.911	0.838	0.578	0.732	0.736	0.839	0.703	0.664	0.901
NCI-H596	0.501	0.507	0.584	0.524	0.435	0.494	0.472	0.446	0.454	0.463	0.995	0.764	0.991	0.806	1.13	1.2	1.07	1.06	0.911	1.03
SK-LU-1	0.144	0.201	–	0.219	0.224	0.906	1.03	0.691	0.997	0.937	1.1	0.815	1.17	1	0.928	0.853	1.04	0.986	0.779	1.03
A-427	0.61	0.658	0.681	0.681	0.518	0.915	1.02	0.987	0.899	0.932	1.03	1.09	–	1.12	–	1.02	–	1.17	1.03	1.16
NCI-H460	0.44	0.306	0.554	0.381	0.343	0.0627	0.0625	0.0614	0.0648	0.0687	0.95	0.605	0.862	0.525	0.996	1.13	0.921	1.05	1.26	0.736
NCI-H1734	0.471	0.435	0.491	0.503	0.538	0.374	0.421	0.409	0.44	0.371	0.981	0.869	0.835	0.719	0.915	0.956	1.02	0.85	1	0.828
NCI-H1915	0.282	0.328	0.289	0.318	0.328	0.496	0.493	0.508	0.508	0.401	1.08	1.05	1.09	0.989	–	1.06	0.678	1.06	0.984	1.1
Calu-6	–	–	–	–	–	–	–	–	–	–	0.934	0.871	0.879	0.756	1.05	1.01	1.25	0.938	1.05	0.765
SW 1573	0.612	0.369	0.612	0.603	0.432	0.835	0.746	0.787	0.763	0.763	0.65	0.705	0.901	0.779	0.986	1.17	1.2	0.73	0.987	0.845
RERF-LC-KJ	0.533	0.694	0.64	0.573	0.515	0.518	0.488	0.506	0.361	0.474	0.872	0.684	0.683	0.563	0.94	0.705	0.83	0.73	0.719	0.78
EMC-BAC-2	0.279	0.312	0.293	0.306	0.332	0.393	0.402	0.413	0.432	0.393	0.817	0.781	0.802	0.718	0.793	0.911	0.837	0.9	0.966	0.712
LK-2	–	0.241	0.421	–	0.327	–	0.315	0.263	0.135	0.347	0.778	0.729	0.413	0.427	1.06	0.836	1.12	1.06	0.941	0.581
NCI-H2228	0.402	0.605	0.468	0.433	0.445	0.38	0.346	0.323	0.343	0.208	0.629	0.408	0.586	0.705	0.972	1.32	1.14	1.38	1.06	0.569
NCI-H322M	0.244	0.222	0.257	0.264	0.259	0.564	0.576	0.608	0.615	0.624	0.937	0.791	1.12	0.771	0.55	0.623	0.573	0.603	0.53	0.832

Cell Line	relative viability ([1]; first compound 0.08 µM)	relative viability ([1]; first compound 0.253 µM)	relative viability ([1]; first compound 0.8 µM)	relative viability ([1]; first compound 2.53 µM)	relative viability ([1]; first compound 8 µM)	relative viability ([2]; first compound 0.08 µM)	relative viability ([2]; first compound 0.253 µM)	relative viability ([2]; first compound 0.8 µM)	relative viability ([2]; first compound 2.53 µM)	relative viability ([2]; first compound 8 µM)	relative viability ([3]; first compound 0.253 µM)	relative viability ([3]; first compound 0.8 µM)	relative viability ([3]; first compound 2.53 µM)	relative viability ([3]; first compound 8 µM)	relative viability (Masitinib + Lapatinib; first compound 0.01 µM)	relative viability (Masitinib + Lapatinib; first compound 0.03162 µM)	relative viability (Masitinib + Lapatinib; first compound 0.1 µM)	relative viability (Masitinib + Lapatinib; first compound 0.3162 µM)	relative viability (Masitinib + Lapatinib; first compound 1 µM)	relative viability ([3]; first compound 0.08 µM)
NCI-H1993	0.532	0.513	0.52	0.545	0.485	0.507	0.517	0.618	0.547	0.578	0.605	0.714	0.698	0.738	0.438	–	0.913	0.776	0.678	0.675
NCI-H2170	0.581	0.574	0.609	0.564	0.489	0.229	0.286	0.27	0.26	0.264	–	–	–	–	0.269	0.275	0.267	0.264	0.262	–
LXF-289	0.194	0.214	0.224	0.183	0.159	0.851	0.924	0.708	0.871	0.792	0.933	0.955	0.986	0.85	0.757	0.879	0.938	0.929	0.894	0.971
NCI-H2405	0.202	0.176	0.15	0.16	0.22	0.921	0.985	0.999	–	0.903	0.927	0.799	0.999	0.926	0.921	1.09	0.953	0.946	0.952	0.777
HCC-44	–	–	–	–	–	0.537	0.55	0.586	0.663	0.607	0.497	0.486	0.539	0.662	0.911	0.98	1.05	0.856	0.951	0.59
LCLC-103H	0.517	0.44	0.41	0.386	0.385	0.415	0.434	0.45	0.46	0.488	0.967	1.01	1.24	1.03	–	–	–	–	–	0.942
NCI-H1299	–	–	–	–	–	–	–	–	–	–	0.985	0.936	0.928	0.928	0.922	0.961	0.991	0.976	0.945	0.93
ABC-1	0.659	0.473	0.552	0.445	0.404	–	–	–	–	–	0.708	0.584	0.642	0.709	1.54	1.15	1.21	1.37	1.16	0.758
ChaGo-K-1	0.547	0.675	0.605	0.49	0.54	0.259	0.272	0.249	0.266	0.252	–	–	–	–	–	–	–	–	–	–
NCI-H1703	–	–	–	–	–	–	–	–	–	–	0.632	0.64	0.732	0.555	0.764	0.857	0.436	0.479	0.256	0.733
NCI-H1648	–	–	–	–	–	0.639	0.626	0.749	0.673	0.633	–	–	–	–	–	–	–	–	–	–
NCI-H727	–	0.425	0.517	0.383	0.398	–	–	–	–	–	0.283	0.268	0.199	0.343	0.923	0.95	0.857	0.914	0.68	0.283
NCI-H1650	0.325	0.28	0.366	0.228	0.221	0.341	0.358	0.399	0.346	0.323	–	–	–	–	0.607	0.761	0.746	0.774	0.612	–
A549	–	–	–	–	–	–	–	–	–	–	0.684	0.619	0.532	0.562	0.995	0.948	1.05	0.942	0.963	0.486
NCI-H522	0.851	0.792	0.933	0.809	0.983	0.966	1.12	1.17	0.995	1.19	–	–	–	–	–	–	–	–	–	–
NCI-H441	0.584	0.482	0.834	0.585	0.585	0.265	0.265	0.246	0.255	0.255	0.574	0.708	0.523	0.497	–	–	–	–	–	0.497
NCI-H1623	0.525	0.506	0.625	0.521	0.575	–	–	–	–	–	–	–	–	–	–	–	–	–	–	–
SW 900	0.358	0.477	0.527	0.615	0.383	0.507	0.4	0.473	0.42	0.366	–	–	–	–	–	–	–	–	–	–
IA-LM	–	–	–	–	–	–	–	–	–	–	0.49	0.692	0.308	0.549	–	–	0.891	0.928	1.07	0.489
EBC-1	–	–	–	–	–	–	–	–	–	–	0.698	0.757	0.686	0.786	0.191	0.235	0.197	0.196	0.21	0.621
